ChEMBL document CHEMBL1142615, “Polyoxygenated dysidea sterols that inhibit the binding of [I125] IL-8 to the human recombinant IL-8 receptor type A” (J Nat Prod, 2000)

These compounds were tested against T1, C-X-C chemokine receptor type 1 (Homo sapiens, UniProt P25024) (assay: Displacement of [125I]IL8 from human recombinant IL8 type A receptor).
T1 sequence (P25024 whole entry): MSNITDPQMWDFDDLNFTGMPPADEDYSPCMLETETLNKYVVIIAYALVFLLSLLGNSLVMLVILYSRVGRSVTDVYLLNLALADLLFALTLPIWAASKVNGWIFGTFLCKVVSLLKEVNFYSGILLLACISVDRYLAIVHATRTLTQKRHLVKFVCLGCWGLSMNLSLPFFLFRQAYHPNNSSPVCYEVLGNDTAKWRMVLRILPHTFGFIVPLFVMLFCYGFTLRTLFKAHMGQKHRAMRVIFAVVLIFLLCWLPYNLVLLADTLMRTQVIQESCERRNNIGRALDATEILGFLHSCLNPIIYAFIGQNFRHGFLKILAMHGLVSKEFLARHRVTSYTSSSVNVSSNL

IC50	Structure (SMILES)
20 µM	CC(=O)O[C@H]1C2=C([C@H](O)C[C@]3(C)[C@@H]([C@H](C)CCCC(C)C)CC[C@@H]23)[C@@]2(C)CC[C@H](O)C[C@]2(O)[C@H]1OC(C)=O
4.5 µM	CC(=O)O[C@H]1C=C2[C@@H]3CC[C@H]([C@H](C)CCCC(C)C)[C@@]3(C)C[C@H]3O[C@@]23[C@@]2(C)CC[C@H](O)C[C@]12O
5.5 µM	CC(=O)O[C@H]1CC[C@]2(C)C3=C([C@H](OC(C)=O)[C@H](OC(C)=O)[C@@]2(O)C1)[C@@H]1CC[C@H]([C@H](C)CCCC(C)C)[C@@]1(C)C[C@H]3O
